Reference: PubChem BioAssay (NCI)
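A five-concentration, 48-hour dose response in 96-well plates underlies each endpoint, interpolated linearly between surrounding concentrations. GI50 marks 50% less growth. The concentration for full growth arrest is given as TGI.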

What was measured:
Assay in all cases: growth of human tumour cells (NCI), 48 h
[1] = test system: 786-0 renal
[2] = test system: A498 renal
[3] = test system: A549 NSCLC
[4] = test system: ACHN renal
[5] = test system: BT-549 breast
[6] = test system: CAKI-1 renal
[7] = test system: CCRF-CEM leukemia
[8] = test system: COLO 205 colon
[9] = test system: DU-145 prostate
[10] = test system: HCC-2998 colon
[11] = test system: HCT-116 colon
[12] = test system: HCT-15 colon
[13] = test system: HL-60(TB) leukemia
[14] = test system: HOP-62 NSCLC
[15] = test system: HOP-92 NSCLC
[16] = test system: HS 578T breast
[17] = test system: HT29 colon
[18] = test system: IGROV1 ovarian
[19] = test system: K-562 leukemia
[20] = test system: KM12 colon
[21] = test system: LOX IMVI melanoma
[22] = test system: M14 melanoma
[23] = test system: MALME-3M melanoma
[24] = test system: MCF7 breast
[25] = test system: MDA-MB-231 breast
[26] = test system: MDA-MB-435
[27] = test system: MOLT-4 leukemia
[28] = test system: NCI-H226 lung
[29] = test system: NCI-H23 lung
[30] = test system: NCI-H460 lung
[31] = test system: NCI-H522 lung
[32] = test system: NCI/ADR-RES ovarian
[33] = test system: OVCAR-3 ovarian
[34] = test system: OVCAR-4 ovarian
[35] = test system: OVCAR-5 ovarian
[36] = test system: OVCAR-8 ovarian
[37] = test system: PC-3 prostate
[38] = test system: RPMI-8226 leukemia
[39] = test system: RXF 393 renal
[40] = test system: SF-268 CNS
[41] = test system: SF-295 CNS
[42] = test system: SF-539 CNS
[43] = test system: SK-MEL-2 melanoma
[44] = test system: SK-MEL-28 melanoma
[45] = test system: SK-MEL-5 melanoma
[46] = test system: SK-OV-3 ovarian
[47] = test system: SN12C renal
[48] = test system: SNB-19 CNS
[49] = test system: SNB-75 CNS
[50] = test system: SR leukemia
[51] = test system: SW-620 colon
[52] = test system: T-47D breast
[53] = test system: TK-10 renal
[54] = test system: U251 CNS
[55] = test system: UACC-257 melanoma
[56] = test system: UACC-62 melanoma
[57] = test system: UO-31 renal

c1ccc(CSc2nnc3c4c5c(sc4nc(-c4cccnc4)n23)CCCCCC5)cc1
GI50 [1]: 3.63 µM | TGI [1]: 14.2 µM | GI50 [2]: 2.24 µM | GI50 [3]: 2.8 µM | TGI [3]: 13.4 µM | GI50 [4]: 2.98 µM | TGI [4]: 10.5 µM | GI50 [5]: 2.8 µM | TGI [5]: 9.04 µM | GI50 [6]: 3.43 µM | TGI [6]: 15.7 µM | GI50 [7]: 1.11 µM | TGI [7]: 15.5 µM | GI50 [8]: 1.55 µM | TGI [8]: 3.33 µM | GI50 [9]: 3.42 µM | TGI [9]: 14.4 µM | GI50 [10]: 4.21 µM | TGI [10]: 15.3 µM | GI50 [11]: 2.77 µM | TGI [11]: 11.3 µM | GI50 [12]: 4.51 µM | TGI [12]: 17 µM | GI50 [13]: 1.84 µM | TGI [13]: 5.27 µM | GI50 [14]: 2.96 µM | TGI [14]: 12.3 µM | GI50 [15]: 1.7 µM | TGI [15]: 7.24 µM | GI50 [16]: 3.84 µM | TGI [16]: 28.6 µM | GI50 [17]: 2.78 µM | TGI [17]: 10.9 µM | GI50 [18]: 4.18 µM | TGI [18]: 19.2 µM | GI50 [19]: 2.34 µM | TGI [19]: 10.4 µM | GI50 [20]: 2.6 µM | TGI [20]: 10.5 µM | GI50 [21]: 3.08 µM | TGI [21]: 11.1 µM | GI50 [22]: 3.75 µM | TGI [22]: 16.9 µM | GI50 [23]: 2.76 µM | TGI [23]: 7.52 µM | GI50 [24]: 2.64 µM | TGI [24]: 11.2 µM | GI50 [25]: 2.18 µM | TGI [25]: 7.15 µM | GI50 [26]: 2.61 µM | TGI [26]: 9.88 µM | GI50 [27]: 3 µM | TGI [27]: 11.3 µM | GI50 [28]: 2.03 µM | TGI [28]: 9.96 µM | GI50 [29]: 2.74 µM | TGI [29]: 8.33 µM | GI50 [30]: 2.97 µM | TGI [30]: 11.1 µM | GI50 [31]: 1.39 µM | TGI [31]: 5.07 µM | GI50 [32]: 14.1 µM | TGI [32]: 38.1 µM | GI50 [33]: 2.86 µM | TGI [33]: 12.4 µM | GI50 [34]: 2.08 µM | TGI [34]: 10.2 µM | GI50 [35]: 4.99 µM | TGI [35]: 17.5 µM | GI50 [36]: 2.86 µM | TGI [36]: 13.2 µM | GI50 [37]: 2.36 µM | TGI [37]: 10.8 µM | GI50 [38]: 1.87 µM | TGI [38]: 12.5 µM | GI50 [39]: 2.79 µM | TGI [39]: 13.1 µM | GI50 [40]: 4.57 µM | TGI [40]: 17.8 µM | GI50 [41]: 2.8 µM | TGI [41]: 11.8 µM | GI50 [42]: 3.51 µM | TGI [42]: 12.9 µM | GI50 [43]: 2.05 µM | TGI [43]: 6.02 µM | GI50 [44]: 3.35 µM | TGI [44]: 14.1 µM | GI50 [45]: 1.37 µM | TGI [45]: 2.68 µM | GI50 [46]: 2.75 µM | TGI [46]: 9.54 µM | GI50 [47]: 2.99 µM | TGI [47]: 11.8 µM | GI50 [48]: 3.96 µM | TGI [48]: 16.2 µM | GI50 [49]: 2.58 µM | TGI [49]: 10.3 µM | GI50 [50]: 2.59 µM | TGI [50]: 10.1 µM | GI50 [51]: 3.09 µM | TGI [51]: 13.3 µM | GI50 [52]: 0.495 µM | TGI [52]: 12.3 µM | GI50 [53]: 3.83 µM | TGI [53]: 12.6 µM | GI50 [54]: 2.2 µM | TGI [54]: 12 µM | GI50 [55]: 2.12 µM | TGI [55]: 8.74 µM | GI50 [56]: 1.91 µM | TGI [56]: 7.23 µM | GI50 [57]: 3.73 µM | TGI [57]: 15.1 µM
